# From patent US20150329512A1, “METHOD AND PHARMACEUTICAL COMPOSITION FOR TREATING LUNG CANCER” (National Dong Hua University, priority 2014, published 2015)
# Assays:
# [1] = tested on: human lung cancer in lung of mice; experiment: Mouse model bearing human lung cancer in lung (A549 or Anti-Dox-A549 cells injected)
# Protocol: The animal experiments were approved by the National Dong-Hwa University Animal Ethics Committee and the experimental protocols were used according to the “Guide for the Care and Use of Laboratory Animals” of National Dong-Hwa University. 1×10^7 of A549 cells or Anti-Dox-A549 cells were suspended in PBS to prepare cell suspensions. On day 0, C57/BL6 mice (6-8 weeks old, n=6) were weighted and anesthetic using pentobarbital (5 mg/ml). Then, the mice were injected with the cell suspension (1×10^7 cells per mouse) into the lung by IT. The injection was repeated every 7 days for 21 days. Another group of mice were injected with 10% EtOH as comparative group according to the same procedure set forth above.
# After the establishment of human lung cancer in the experimental mice, the mice were maintained for one more week and then treated with HCD (0.0318 or 1.272 mg/kg body weight, in 10% ETOH with PBS), PG (0.1615 or 0.646 mg/kg body weight, in 10% ETOH with PBS) or 10% EtOH by IT injection (intrathecal injection) to the lung. The body weight was monitored every five days for thirty days. After thirty days, the mice were sacrificed and the lungs were checked for marker of human lung adenocarcinoma by H&E and IHC staining. The livers, kidneys and spleens of the mice were also examined to confirm the cytotoxicity of HCD and PG and to see if there was any metastasis happened.
# [2] = tested on: A549 cells; experiment: MTT assay, cell viability; assay type: cell-based, human
# Protocol: (§1) A549 (lung cancer cell line, non-resistance) and Anti-Dox-A549 (lung cancer cell line with resistance to Doxorubicin) were maintained in DMEM supplemented with 10% fetal bovine serum (FBS, Gibco), pH 7.4, 37° C. and with continuous circulation of 5% CO2. The medium was changed every 2 days and the cells were trypsinized with trypsin/EDTA when reaching 80%-90% confluence.
# (§2) A549 and Anti-Dox-A549 were treated by the following treatment (Table 1) for 24 or 48 hr for examining the effects of HCD, PG, and Dox on their viability.
# (§3) Dox1is referred as Dox of 1 μM; Dox2.5 is referred as Dox of 2.5 μM; Dox5 is referred as Dox of 5 μM; Dox10 is referred as Dox of 10 μM; Dox100 is referred as Dox of 100 μM. HCD2.5 is referred as HCD of 2.5 μM; HCD10 is referred as HCD of 10 μM; HCD25 is referred as HCD of 25 μM; HCD50 is referred as HCD of 50 μM. PG2.5 is referred as PG of 2.5 μM; PG5 is referred as PG of 5 μM; PG10 is referred as PG of 10 μM; PG20 is referred as PG of 20 μM.
# (§4) In this example, the effects of HCD, PG, and Dox on the viability of A549 and anti-Dox-A549 were examined. The MTT assay was employed for this purpose. The MTT (3-(4-,5-dimethylthiazol-2-yl)-2,5-diphenyltetrazolium bromide) assay is a common colorimetric method in the field for cell viability analysis. MTT (yellow tetrazolium salt) is reduced to a purple formazan by living cells and detection to the purple formazan can be calculated as the cell viability.
# (§5) Briefly, cells (A549 or Anti-Dox-A549) were seeded in 96-well plate (7×10^3 cell per well) and incubated overnight (37° C., 5% CO2).
# [3] = tested on: Anti-Dox-A549 cells; experiment: MTT assay, cell viability; assay type: cell-based, human
# Protocol: as §1, §2, §3, §4, §5
# [4] = tested on: A549 cells; experiment: Cell cycle analysis by flow cytometer (PI staining); assay type: cell-based, human; details: for G0/G1 (%) / G2/M (%) / S (%) / Sub G1 (%): A549
# Protocol: (§6) The results of Example 2 in cell viability hinted the effects of HCD, PG, and Dox on arresting cell cycle. In this example, the phase of cell cycle of A549 cells and Anti-Dox-A549 cells after the treatment listed in Table 1 was determined by flow cytometer. Briefly, 7×10^4 cells per well were to inoculated in 12-wells plate and incubated overnight at 37° C., 5% CO2. Then, cells were treated according to the treatment listed in Table 1 by indicated time period. After treatment, cells were harvested by trypsin and fixed with 70% ethanol at −20° C. for at least 3 hr. The cells were washed in cold PBS twice and then incubated with 1 ml (v/v) staining solution (20 μg/m1 propidium iodide (PI), 0.1% Triton X-100, 0.2 mg/ml Rnase) at 37° C. for 30 minutes. Lastly, cells were analyzed by flow cytometer (Cytomics™ FC500, Backman, Fullerton, Calif., USA). Data from 10,000 cells were collected for each experimental group.
# [5] = tested on: Anti-Dox-A549 cells; experiment: as above; assay type: cell-based, human; details: for G0/G1 (%) / G2/M (%) / S (%) / Sub G1 (%): Anti-Dox-A549
# Protocol: as §6
# [6] = mice treated by IT injection to the lung, after thirty days, data not shown
# [7] = pre-treatment (HCD especially 10 or 25 μM), then Dox 1 or 2.5 μM
smiles,measurement,setting,value
"CC1=CCCC2C1(C)CCC(C)C2(C)CCC1=CC(=O)OC1O (stereo not drawn) [HCD, 16-hydroxy-cleroda-3,13-dine-15,16-olide]",H&E and IHC staining of the lung,"[1]; HCD 0.0318 or 1.272 mg/kg, PG 0.1615 or 0.646 mg/kg body weight, IT injection to the lung, after thirty days",less cell invention around blood vessels 1 and less cell accumulation 2 around the trachea 4
same,body weight of the experimental mice,"[1]; HCD 0.0318 or 1.272 mg/kg, PG 0.1615 or 0.646 mg/kg body weight, IT injection to the lung, monitored every five days for thirty days",did not show significantly change
same,"injury of livers, kidneys and spleens (staining)",[1]; [6],did not cause serious cytotoxicity
same,"metastasis in livers, kidneys and spleens",[1]; [6],no metastasis happened
same,IC50,[2]; 24 hr treatment,~50 µM
same,effect of pre-treatment on the effects of Dox on cell viability,[2]; [7],enhance the effects of Dox on viability
same,IC50,[3]; 24 hr treatment,~50 µM
same,effect of pre-treatment on the effects of Dox on cell viability,[3]; [7],rescue the sensitivity of Anti-Dox-A549 cells to Dox
same,cell cycle effect compared with the control group,"[4]; A549 cells, Tables 3 and 5",increased cell cycle arrest at G2/M phase
same,cell cycle effect of pre-treatment and subsequent Dox,"[4]; A549 cells, Tables 9 and 11",increased sub G1 phase and arrested at G2/M phase
same,G0/G1 (%),"[4]; HCD 2.5 μM, 24 hr",77.3 ± 0.9%
same,G2/M (%),"[4]; HCD 2.5 μM, 24 hr",9.7 ± 0.9%
same,S (%),"[4]; HCD 2.5 μM, 24 hr",9.6 ± 0.5%
same,Sub G1 (%),"[4]; HCD 2.5 μM, 24 hr",1.0 ± 0.2%
same,G0/G1 (%),"[4]; HCD 2.5 μM, 36 hr",74.4 ± 2.6 %
same,G2/M (%),"[4]; HCD 2.5 μM, 36 hr",11.8 ± 0.9%
same,S (%),"[4]; HCD 2.5 μM, 36 hr",9.5 ± 0.4 %
same,Sub G1 (%),"[4]; HCD 2.5 μM, 36 hr",1.1 ± 0.1%
same,G0/G1 (%),"[4]; HCD 2.5 μM, 48 hr",80.4 ± 0.2%
same,G2/M (%),"[4]; HCD 2.5 μM, 48 hr",8.9 ± 0.1%
same,S (%),"[4]; HCD 2.5 μM, 48 hr",6.9 ± 0.1%
same,Sub G1 (%),"[4]; HCD 2.5 μM, 48 hr",1.8 ± 0.2%
same,G0/G1 (%),"[4]; HCD 10 μM, 24 hr",85.6 ± 6.9 %
same,G2/M (%),"[4]; HCD 10 μM, 24 hr",6.1 ± 0.5 %
same,S (%),"[4]; HCD 10 μM, 24 hr",3.9 ± 2.8 %
same,Sub G1 (%),"[4]; HCD 10 μM, 24 hr",1 ± 0.2%
same,G0/G1 (%),"[4]; HCD 10 μM, 36 hr",75.4 ± 1.8%
same,G2/M (%),"[4]; HCD 10 μM, 36 hr",10.0 ± 1.2%
same,S (%),"[4]; HCD 10 μM, 36 hr",10.7 ± 0.4 %
same,Sub G1 (%),"[4]; HCD 10 μM, 36 hr",1.4 ± 0.2%
same,G0/G1 (%),"[4]; HCD 10 μM, 48 hr",75.6 ± 1.8%
same,G2/M (%),"[4]; HCD 10 μM, 48 hr",11.2 ± 0.2 %
same,S (%),"[4]; HCD 10 μM, 48 hr",8.7 ± 0.2%
same,Sub G1 (%),"[4]; HCD 10 μM, 48 hr",1.8 ± 0.2%
same,G0/G1 (%),"[4]; HCD 25 μM, 24 hr",62.9 ± 3.3%
same,G2/M (%),"[4]; HCD 25 μM, 24 hr",22.8 ± 3.0 %
same,S (%),"[4]; HCD 25 μM, 24 hr",11.1 ± 1.3%
same,Sub G1 (%),"[4]; HCD 25 μM, 24 hr",1.5 ± 0.2%
same,G0/G1 (%),"[4]; HCD 25 μM, 36 hr",62.3 ± 1.3 %
same,G2/M (%),"[4]; HCD 25 μM, 36 hr",22.8 ± 1.5 %
same,S (%),"[4]; HCD 25 μM, 36 hr",9.2 ± 0.7 %
same,Sub G1 (%),"[4]; HCD 25 μM, 36 hr",2.7 ± 0.1 %
same,G0/G1 (%),"[4]; HCD 25 μM, 48 hr",61.7 ± 1.2 %
same,G2/M (%),"[4]; HCD 25 μM, 48 hr",22.7 ± 0.5 %
same,S (%),"[4]; HCD 25 μM, 48 hr",7.9 ± 1.3%
same,Sub G1 (%),"[4]; HCD 25 μM, 48 hr",1.9 ± 0.5 %
same,cell cycle effect compared with the control group,"[5]; Anti-Dox-A549 cells, Tables 2 and 4",increased cell cycle arrest at G2/M phase
same,cell cycle effect of pre-treatment and subsequent Dox,"[5]; Anti-Dox-A549 cells, Tables 8 and 10",increased sub G1 phase and arrested at G2/M phase
same,G0/G1 (%),"[5]; HCD 2.5 μM, 24 hr",68.2 ± 2.8%
same,G2/M (%),"[5]; HCD 2.5 μM, 24 hr",16.5 ± 1.8%
same,S (%),"[5]; HCD 2.5 μM, 24 hr",12.1 ± 0.8%
same,Sub G1 (%),"[5]; HCD 2.5 μM, 24 hr",0.63 ± 0.05%
same,G0/G1 (%),"[5]; HCD 2.5 μM, 36 hr",80.3 ± 0.6%
same,G2/M (%),"[5]; HCD 2.5 μM, 36 hr",9.6 ± 0.3%
same,S (%),"[5]; HCD 2.5 μM, 36 hr",7.4 ± 0.2%
same,Sub G1 (%),"[5]; HCD 2.5 μM, 36 hr",0.93 ± 0.2%
same,G0/G1 (%),"[5]; HCD 2.5 μM, 48 hr",82.1 ± 0.7%
same,G2/M (%),"[5]; HCD 2.5 μM, 48 hr",8.9 ± 0.7%
same,S (%),"[5]; HCD 2.5 μM, 48 hr",6.1 ± 0.3%
same,Sub G1 (%),"[5]; HCD 2.5 μM, 48 hr",1.56 ± 0.2%
same,G0/G1 (%),"[5]; HCD 10 μM, 24 hr",83.6 ± 1.4 %
same,G2/M (%),"[5]; HCD 10 μM, 24 hr",6.6 ± 0.55 %
same,S (%),"[5]; HCD 10 μM, 24 hr",7.0 ± 0.6%
same,Sub G1 (%),"[5]; HCD 10 μM, 24 hr",0.73 ± 0.05%
same,G0/G1 (%),"[5]; HCD 10 μM, 36 hr",75.8 ± 0.3 %
same,G2/M (%),"[5]; HCD 10 μM, 36 hr",11.8 ± 1.0 %
same,S (%),"[5]; HCD 10 μM, 36 hr",9.2 ± 0.4 %
same,Sub G1 (%),"[5]; HCD 10 μM, 36 hr",1 ± 0.2%
same,G0/G1 (%),"[5]; HCD 10 μM, 48 hr",82.2 ± 0.7%
same,G2/M (%),"[5]; HCD 10 μM, 48 hr",8.3 ± 0.2%
same,S (%),"[5]; HCD 10 μM, 48 hr",6.4 ± 0.3%
same,Sub G1 (%),"[5]; HCD 10 μM, 48 hr",1.76 ± 0.1%
same,G0/G1 (%),"[5]; HCD 25 μM, 24 hr",70.5 ± 2.7%
same,G2/M (%),"[5]; HCD 25 μM, 24 hr",19.3 ± 1.7 %
same,S (%),"[5]; HCD 25 μM, 24 hr",7.9 ± 0.8 %
same,Sub G1 (%),"[5]; HCD 25 μM, 24 hr",1.3 ± 0.1 %
same,G0/G1 (%),"[5]; HCD 25 μM, 36 hr",73.9 ± 2.7 %
same,G2/M (%),"[5]; HCD 25 μM, 36 hr",17.7 ± 1.9 %
same,S (%),"[5]; HCD 25 μM, 36 hr",5.4 ± 0.9%
same,Sub G1 (%),"[5]; HCD 25 μM, 36 hr",3.43 ± 0.2 %
same,G0/G1 (%),"[5]; HCD 25 μM, 48 hr",3.73 ± 1.6 %
same,G2/M (%),"[5]; HCD 25 μM, 48 hr",21.8 ± 2.4 %
same,S (%),"[5]; HCD 25 μM, 48 hr",11.2 ± 1.3 %
same,Sub G1 (%),"[5]; HCD 25 μM, 48 hr",27.2 ± 0.5 %
